Patent US10159678B2, “Methods to decrease susceptibility to asthmatic bronchoconstriction” (Cornell University, priority 2012, dated 2018)

Experiments:
CFTR [1] = target: T1, CFTR (Mus musculus, UniProt P26361); experiment: Myograph contractile response of bronchial rings from Sptlc2+/- or Sptlc2+/+ mice with GlyH-101 in bath; conditions: 2 hr in bath, methacholine (10 mM), FIG. 6C
T1 construct: administered directly to the respiratory tract; from tissue; host or cells: live Sptlc2+/+ and Sptlc2+/- mice (airways)
Procedure: In another experiment, bronchial rings were isolated from Sptlc2^+/− or Sptlc2^+/+ mice and mounted in a myograph. CFTR inhibitor GlyH-101 or the solvent DMSO (control) were added to the bath solution. After 2 hr contractile responses of the rings stimulated with methacholine (10 mM) were determined.

[2] = system: cystic fibrosis tracheal cells; experiment: Sphinganine in cell lysates by LC-MS/MS after GlyH-101; type: cell-based, human; conditions: GlyH-101 (50 μM) in culture medium, cells from the trachea of cystic fibrosis patients; FIG. 6A
Procedure: (§1) GlyH-101 (50 μM) was added to culture media of cystic fibrosis tracheal cells, non-cystic fibrosis tracheal cells or A549 cells (a lung epithelial cell line).
(§2) Sphinganine, an intermediate of de-novo sphingolipid synthesis, was quantified in cell lysates by LC-MS/MS.

[3] = system: non-cystic fibrosis tracheal cells; experiment: as above; type: cell-based; conditions: GlyH-101 (50 μM) in culture media, non-CF airway epithelial cells; FIG. 6A
Procedure: as §1, §2

A549 cells = experiment: as above; type: cell-based; conditions: GlyH-101 (50 μM), A549 lung epithelial cell line; FIG. 6B
Procedure: as §1, §2

CFTR [4] = target: T1, CFTR; experiment: Airway resistance to methacholine after intranasal GlyH-101 in Sptlc2+/+ and Sptlc2+/- mice; type: in vivo; conditions: GlyH-101 (5 μg) intranasally, after 3 h
Procedure: Mice were anaesthetized with pentobarbital (100 mg/kg; American Pharmaceutical Partners, Los Angeles, Calif.), tracheostomized and mechanically ventilated at a rate of 150 breaths/min, a tidal volume of 10 ml/kg and positive end-expiratory pressure of 2-3 cm H2O using a computer-controlled animal ventilator (Sireq, Montreal, Canada). Three perturbations were used to assess baseline respiratory mechanics and the effects were analyzed using the Flexivent software (Scireq): • (1) Static compliance was determined using the Salazar-Knowles equation (Colebatch et al., J Appl Physiol 46:387-393 (1971) to the plateau pressure measurements obtained between total lung capacity and functional residual capacity; • (2) Single-frequency forced oscillations were applied to determine tissue resistance (R), elastance (E) and dynamic compliance (C) using a single compartment model; • (3) Broadband forced oscillations were applied to determine Newtonian (airway) resistance (Rn), tissue damping (G) and tissue elastance using a constant phase model. Rn and G were also assessed following increasing doses of methacholine (3.125, 12.5 and 50 mg/ml). […]

non-malignant cells = non-malignant cells (Li et al. 2009; O'Donnell et al. 2002); cited from earlier work
cancer cells = cancer cells (Wang et al. 2001); cited from earlier work
[5] = system: Human bronchial epithelial cells; experiment: Sphingolipids by mass spectrometry in human bronchial epithelial cells; type: cell-based; conditions: fenretinide (10 μM) for 3 hours; FIG. 7
Procedure: FIG. 7 illustrates that fenretinide increases metabolites of de-novo sphingolipid synthesis. Human bronchial epithelial cells were incubated with myriocin (1 μM) or fenretinide (10 μM) for 3 h in serum free medium supplemented with fatty acid-free bovine serum albumin (0.1%). Cell lysates were analyzed by mass spectrometry. The sums (mean+SEM) of all dihydroceramides are shown as a reflection of the activity of the de-novo sphingolipid synthesis pathway.
(§3) Human bronchial epithelial cells were incubated with either myriocin (1 μM) or fenretinide (10 μM) for 3 hours. The amounts of sphingolipids were then quantified by mass spectrometry.

[6] = system: Human bronchial epithelial cells; experiment: Viability of human bronchial epithelial cells; type: cell-based; conditions: myriocin (1 μM) or fenretinide (10 μM) for 3 hours
Procedure: as §3
The viability of the cells was not affected by fenretinide or myriocin. Fenretinide can induce cell death at doses as low as 5 μM in cancer cells (Wang et al. Cancer Res 61:5102-5 (2001)), but toxicity is usually not seen in doses up to 12 μM in non-malignant cells (Li et al., Cancer Letters 284:175-81 (2009); O'Donnell et al., Leukemia 16:902-10 (2002)). Accordingly, low doses of fenretinide may effectively alleviate bronchial hyper reactivity.

T1 sequence (P26361 whole entry): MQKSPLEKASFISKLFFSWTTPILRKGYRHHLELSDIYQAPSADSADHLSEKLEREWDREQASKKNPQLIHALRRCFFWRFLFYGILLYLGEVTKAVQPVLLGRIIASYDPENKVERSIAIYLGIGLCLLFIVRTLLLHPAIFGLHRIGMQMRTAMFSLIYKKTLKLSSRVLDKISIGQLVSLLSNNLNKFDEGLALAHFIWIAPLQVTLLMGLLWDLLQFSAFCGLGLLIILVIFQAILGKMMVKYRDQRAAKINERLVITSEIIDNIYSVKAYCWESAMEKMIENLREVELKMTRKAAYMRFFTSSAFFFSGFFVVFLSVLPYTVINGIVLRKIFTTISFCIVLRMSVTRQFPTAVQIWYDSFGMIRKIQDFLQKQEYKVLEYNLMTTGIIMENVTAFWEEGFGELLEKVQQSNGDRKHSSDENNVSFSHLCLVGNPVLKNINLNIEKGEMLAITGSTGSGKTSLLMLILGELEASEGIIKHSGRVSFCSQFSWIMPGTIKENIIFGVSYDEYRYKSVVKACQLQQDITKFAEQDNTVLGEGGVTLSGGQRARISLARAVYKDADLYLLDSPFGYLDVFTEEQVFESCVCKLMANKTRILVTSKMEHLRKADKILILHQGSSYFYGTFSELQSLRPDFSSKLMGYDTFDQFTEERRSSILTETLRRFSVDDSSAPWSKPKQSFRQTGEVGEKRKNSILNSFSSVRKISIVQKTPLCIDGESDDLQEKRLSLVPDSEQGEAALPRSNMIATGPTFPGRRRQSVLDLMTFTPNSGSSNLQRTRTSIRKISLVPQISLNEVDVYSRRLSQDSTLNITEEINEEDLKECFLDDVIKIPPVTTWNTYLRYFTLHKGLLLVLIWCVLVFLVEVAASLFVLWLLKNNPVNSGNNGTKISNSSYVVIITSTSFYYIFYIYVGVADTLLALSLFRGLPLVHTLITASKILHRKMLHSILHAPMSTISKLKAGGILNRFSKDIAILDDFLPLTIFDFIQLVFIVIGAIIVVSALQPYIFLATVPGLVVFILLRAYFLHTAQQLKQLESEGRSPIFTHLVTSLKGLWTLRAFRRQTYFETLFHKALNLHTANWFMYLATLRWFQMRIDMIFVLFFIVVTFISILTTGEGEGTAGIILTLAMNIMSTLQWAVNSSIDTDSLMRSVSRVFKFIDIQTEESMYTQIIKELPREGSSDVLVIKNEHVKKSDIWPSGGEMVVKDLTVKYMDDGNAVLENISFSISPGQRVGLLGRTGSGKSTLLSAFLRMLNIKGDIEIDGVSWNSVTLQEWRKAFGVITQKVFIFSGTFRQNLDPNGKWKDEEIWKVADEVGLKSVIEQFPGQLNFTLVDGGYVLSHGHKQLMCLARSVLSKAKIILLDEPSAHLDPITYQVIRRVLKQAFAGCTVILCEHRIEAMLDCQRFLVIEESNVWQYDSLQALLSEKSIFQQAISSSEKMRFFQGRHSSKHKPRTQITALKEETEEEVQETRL

Row | contractile response of bronchial rings upon methacholine (CFTR [1]; rings from Spt-deficient mice) | contractile response of bronchial rings (CFTR [1]; rings from wild type mice (Sptlc+/+)) | airway resistance after methacholine (CFTR [4]; Sptlc2+/- mice, FIG. 6E) | bronchial reactivity after methacholine (CFTR [4]; control Sptlc2+/+ mice, FIG. 6D) | SMILES | sphinganine level [2] | sphinganine level [3] | sphinganine level (A549 cells) | doses at which toxicity is usually not seen (non-malignant cells) | doses that can induce cell death (cancer cells) [µM] | sum of all dihydroceramides [5] | viability of the cells [6]
1 | decreased | increased contractile response | alleviated | no effect | O=C(CNc1ccc2ccccc2c1)N/N=C/c1cc(Br)c(O)c(Br)c1O [GlyH-101, (Naphthalen-2-ylamino)-acetic acid (3,5-dibromo-2,4,-dihydroxybenzylidene)-hydrazide] | not altered | increases | increases |  |  |  | 
2 |  |  |  |  | CC1=C(/C=C/C(C)=C/C=C/C(C)=C/C(=O)Nc2ccc(O)cc2)C(C)(C)CCC1 [fenretinide, N-(4-hydroxyphenyl)retinamide] |  |  |  | up to 12 μM | ≥ 5 | increased | not affected
